According to patent US7807678B2, “Peptidomimetics of biologically active metallopeptides” (Palatin Technologies, Inc., priority 2001, dated 2010):

Legend:
[1] = target: T1, MC1-R (B-16 mouse melanoma cells) (Mus musculus, UniProt Q01727); test: Competitive inhibition binding assay, 125I-NDP-α-MSH, MC1-R; conditions: for Inhibition at 1 μM MC1-R: 1 μM compound, inhibition of 125I-NDP-α-MSH binding, mean of triplicates, results less than 0% reported as 0%
T1 construct: B-16 mouse melanoma cells (containing MC1-R); endogenous in cells; host or cells: B-16 mouse melanoma cells
T1 sequence (Q01727 whole entry): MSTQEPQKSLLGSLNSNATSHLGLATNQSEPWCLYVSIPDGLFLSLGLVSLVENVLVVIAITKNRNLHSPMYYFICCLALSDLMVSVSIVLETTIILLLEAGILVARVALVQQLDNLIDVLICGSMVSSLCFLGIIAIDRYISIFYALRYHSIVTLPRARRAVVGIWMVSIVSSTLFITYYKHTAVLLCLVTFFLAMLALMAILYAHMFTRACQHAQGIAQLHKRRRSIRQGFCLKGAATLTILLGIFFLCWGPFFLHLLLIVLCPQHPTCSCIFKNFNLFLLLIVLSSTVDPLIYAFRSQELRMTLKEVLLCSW
Protocol: (§1) The competitive inhibition binding assay was conducted using membranes prepared from hMC3-R, hMC4-R, hMC5-R, and B-16 mouse melanoma cells (containing MC1-R) using 0.4 nM ^125I-NDP-α-MSH (New England Nuclear, Boston, Mass., USA) in 50 mM HEPES buffer containing 1 mM MgCl2, 2 mM CaCl2, and 5 mM KCl, at pH 7.2. The assay tube also contained a chosen concentration of the test peptidomimetic of this invention, generally 1 μM, for determining its efficacy in inhibiting the binding of ^125I-NDP-α-MSH to its receptor.
(§2) Incubation was for 90 minutes at room temperature, after which the assay mixture was filtered and the membranes washed three times with ice cold buffer. The filter was dried and counted in a gamma counter for remaining radioactivity bound to the membranes. 100% specific binding was defined as the difference in radioactivity (cpm) bound to cell membranes in the absence and presence of 1 μM α-MSH. […] Each assay was conducted in triplicate and the actual mean values are described.

MC3-R = MC3-R (Homo sapiens, UniProt P41968); test: Competitive inhibition binding assay, 125I-NDP-α-MSH, MC3-R; design: expressed in transfected cells; conditions: for Inhibition at 1 μM MC3-R: 1 μM compound, inhibition of 125I-NDP-α-MSH binding, mean of triplicates, results less than 0% reported as 0%
Chain of MC3-R (P41968 whole entry): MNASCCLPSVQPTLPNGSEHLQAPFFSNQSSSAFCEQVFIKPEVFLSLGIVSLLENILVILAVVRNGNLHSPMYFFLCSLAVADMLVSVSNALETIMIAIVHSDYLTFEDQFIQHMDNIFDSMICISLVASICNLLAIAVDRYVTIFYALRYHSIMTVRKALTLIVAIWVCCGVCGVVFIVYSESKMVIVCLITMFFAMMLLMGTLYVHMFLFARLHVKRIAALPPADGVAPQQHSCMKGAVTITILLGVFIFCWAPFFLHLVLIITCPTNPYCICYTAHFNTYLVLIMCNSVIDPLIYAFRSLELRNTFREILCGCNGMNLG
Protocol: as §1, §2

MC5-R = MC5-R (Homo sapiens, UniProt P33032); test: Competitive inhibition binding assay, 125I-NDP-α-MSH, MC5-R; design: expressed in transfected cells; conditions: 1 μM compound; inhibition of 125I-NDP-α-MSH binding; mean of triplicates; results less than 0% reported as 0%
Chain of MC5-R (P33032 whole entry): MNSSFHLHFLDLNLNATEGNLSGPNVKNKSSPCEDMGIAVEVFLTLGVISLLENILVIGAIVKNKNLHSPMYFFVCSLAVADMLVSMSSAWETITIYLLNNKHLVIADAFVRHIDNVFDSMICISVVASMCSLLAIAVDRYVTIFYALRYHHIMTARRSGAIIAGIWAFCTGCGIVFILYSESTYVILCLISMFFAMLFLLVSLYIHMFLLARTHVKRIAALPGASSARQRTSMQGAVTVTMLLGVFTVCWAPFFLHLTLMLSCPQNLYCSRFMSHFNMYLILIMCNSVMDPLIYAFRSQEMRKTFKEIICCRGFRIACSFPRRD
Protocol: as §1, §2

MC4-R = MC4-R (Homo sapiens, UniProt P32245); test: Competitive inhibition binding assay, 125I-NDP-α-MSH, MC4-R; design: expressed in transfected cells; conditions: for Inhibition at 1 μM MC4-R: 1 μM compound, inhibition of 125I-NDP-α-MSH binding, mean of triplicates, results less than 0% reported as 0%
Chain of MC4-R (P32245 whole entry): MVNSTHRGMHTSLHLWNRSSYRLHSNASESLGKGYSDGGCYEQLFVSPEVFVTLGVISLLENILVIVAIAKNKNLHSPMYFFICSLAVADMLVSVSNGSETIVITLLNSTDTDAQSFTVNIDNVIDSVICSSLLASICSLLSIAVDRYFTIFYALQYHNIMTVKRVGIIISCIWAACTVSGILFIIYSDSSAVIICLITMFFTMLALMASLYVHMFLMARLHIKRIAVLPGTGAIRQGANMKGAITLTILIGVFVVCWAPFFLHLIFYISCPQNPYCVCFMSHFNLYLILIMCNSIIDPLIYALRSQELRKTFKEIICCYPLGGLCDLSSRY
Protocol: as §1, §2

Inhibition at 1 μM MC1-R [1]	Inhibition at 1 μM MC3-R (MC3-R)	Inhibition at 1 μM MC5-R (MC5-R)	Inhibition at 1 μM MC4-R (MC4-R)	inhibition at 1 µM [1]	inhibition at 1 µM (MC3-R)	inhibition at 1 µM (MC4-R)	Structure (SMILES)
46%	39%	14%	40%				NCCCC[C@H]1C(=O)N(CCc2ccccc2)CCN1C(=O)[C@@H](Cc1ccc(Cl)cc1)NC(=O)[C@@H](N)COCc1ccccc1 [Example 12]
86%	55%	81%	96%				N=C(N)NCCC[C@H]1C(=O)N(CCc2c[nH]c3ccccc23)CCN1C(=O)[C@@H](Cc1ccc(Cl)cc1)NC(=O)[C@@H](N)COCc1ccccc1 [Example 16]
62%	22%	19%	83%				N=C(N)NCCCC1C(=O)N(CCc2c[nH]c3ccccc23)CCN1C(=O)C(Cc1ccccc1Cl)NC(=O)C1CCC(c2ccccc2)N1 (stereo not shown) [Example 21]
9%	3%	4%	62%				NCCCC[C@H]1C(=O)N(CCc2ccc3ccccc3c2)CCN1C(=O)[C@H](N)Cc1ccc(Cl)cc1Cl [Example 35]
13%	10%	30%	61%				CC(=O)NCCCC1C(=O)N(CCc2ccc3ccccc3c2)CCN1C(=O)C(Cc1ccc(Cl)cc1Cl)NC(=O)C(N)COCc1ccccc1 (stereo not shown) [Example 42]
0%	9%	14%	40%				CS(=O)(=O)NCCC[C@H]1C(=O)N(CCc2ccc3ccccc3c2)CCN1C(=O)[C@@H](Cc1ccc(Cl)cc1Cl)NC(=O)[C@@H](N)COCc1ccccc1 [Example 47]
2%	0%	1%	43%				NCCC[C@H]1C(=O)N(CCc2ccc3ccccc3c2)CCN1C(=O)[C@H](N)Cc1ccc(Cl)cc1Cl [Example 49]
24%	14%	27%	68%				N[C@H](Cc1ccc(Cl)cc1Cl)C(=O)N1CCN(CCc2ccc3ccccc3c2)C(=O)[C@@H]1CCNC1=NCCN1 [Example 55]
21%	13%	24%	81%				N=C(N)NCC[C@H]1C(=O)N(CCc2ccc3ccccc3c2)CCN1C(=O)[C@H](N)Cc1ccc(Cl)cc1Cl [Example 56]
11%	0%	5%	9%				NC(=O)NCC[C@H]1C(=O)N(CCc2ccc3ccccc3c2)CCN1C(=O)[C@H](N)Cc1ccc(Cl)cc1Cl [Example 57]
7%	0%	3%	0%				N[C@H](Cc1ccc(Cl)cc1Cl)C(=O)N1CCN(CCc2ccc3ccccc3c2)C(=O)[C@@H]1CCCn1cncn1 [Example 58]
26%	14%	30%	72%				NCCCC[C@H]1C(=O)N(CCc2ccc3ccccc3c2)CCN1C(=O)[C@H](N)Cc1ccc2ccccc2c1 [Example 59]
4%	6%	13%	23%				N[C@H](Cc1ccc(Cl)cc1Cl)C(=O)N1CCN(CCc2ccc3ccccc3c2)C(=O)[C@@H]1CCCCNC(=O)c1cccnc1 [Example 60]
3%	6%	26%	12%				N[C@H](Cc1ccc(Cl)cc1Cl)C(=O)N1CCN(CCc2ccc3ccccc3c2)C(=O)[C@@H]1CCCCNC(=O)c1ccc(O)cc1 [Example 61]
43%	15%	14%	49%				NC(=O)NCCCC[C@H]1C(=O)N(CCc2ccc3ccccc3c2)CCN1C(=O)[C@H](N)Cc1ccc(Cl)cc1Cl [Example 66]
				94%	9%	10%	[2H]N[C@@H](Cc1cnc[nH]1)C(=O)N[C@@H](Cc1ccccc1)C(=O)N1C2CC[C@H](COc3ccc4ccccc4c3)N2C(=O)[C@@H]1CCCCN (stereo partly shown) [Example 111]

Further lines, the compound ahead of its results:

Structure (SMILES)	Inhibition at 1 μM MC1-R [1]	Inhibition at 1 μM MC3-R (MC3-R)	Inhibition at 1 μM MC5-R (MC5-R)	Inhibition at 1 μM MC4-R (MC4-R)	inhibition at 1 µM [1]	inhibition at 1 µM (MC3-R)	inhibition at 1 µM (MC4-R)
CCCCCCC(=O)N[C@@H](COCc1ccccc1)C(=O)N[C@H](Cc1ccccc1Cl)C(=O)N1CCN(CCc2c[nH]c3ccccc23)C(=O)[C@@H]1CCCCN [Example 11]	96%	51%	82%	99%			
NCCCC[C@H]1C(=O)N(CCc2ccccc2)CCN1C(=O)[C@@H](Cc1ccc(Cl)cc1)NC(=O)[C@@H]1Cc2ccccc2CN1 [Example 13]	68%	21%	16%	66%			
N=C(N)NCCC[C@H]1C(=O)N(CCc2c[nH]c3ccccc23)CCN1C(=O)[C@@H](Cc1ccc(Cl)cc1)NC(=O)[C@@H](N)COCc1ccc(Cl)cc1 [Example 15]	81%	64%	90%	94%			
N=C(N)NCCC[C@H]1C(=O)N(CCc2c[nH]c3ccccc23)CCN1C(=O)[C@@H](Cc1ccccc1Cl)NC(=O)[C@@H]1Cc2ccccc2CN1 [Example 18]	95%	50%	62%	99%			
N=C(N)NCCC[C@H]1C(=O)N(CCc2c[nH]c3ccccc23)CCN1C(=O)[C@@H](Cc1ccccc1Cl)NC(=O)[C@@H]1C[C@@H](OCc2ccccc2)CN1 [Example 19]	91%	59%	85%	99%			
N=C(N)NCCC[C@H]1C(=O)N(CCc2c[nH]c3ccccc23)CCN1C(=O)[C@@H](Cc1ccccc1Cl)NC(=O)[C@@H](N)COCc1ccccc1 [Example 20]	87%	40%	71%	98%			
NCCCC[C@H]1C(=O)N(CCOc2ccc3ccccc3c2)CCN1C(=O)[C@@H](Cc1ccc(Cl)cc1)NC(=O)[C@@H](N)COCc1ccccc1 [Example 29]	64%	21%	72%	64%			
NCCCC[C@H]1C(=O)N(CCOc2ccc3ccccc3c2)CCN1C(=O)[C@@H](Cc1ccc(Cl)cc1)NC(=O)[C@@H]1Cc2ccccc2CN1 [Example 30]	88%	35%	65%	88%			
COC(=O)NCCC[C@H]1C(=O)N(CCc2ccc3ccccc3c2)CCN1C(=O)[C@@H](Cc1ccc(Cl)cc1Cl)NC(=O)[C@@H](N)COCc1ccccc1 [Example 43]	1%	0%	20%	43%			
CNC(=O)NCCC[C@H]1C(=O)N(CCc2ccc3ccccc3c2)CCN1C(=O)[C@@H](Cc1ccc(Cl)cc1Cl)NC(=O)[C@@H](N)COCc1ccccc1 [Example 45]	5%	11%	31%	72%			
N[C@@H](COCc1ccccc1)C(=O)N[C@H](Cc1ccc(Cl)cc1Cl)C(=O)N1CCN(CCc2ccc3ccccc3c2)C(=O)[C@@H]1CCCNS(N)(=O)=O [Example 46]	0%	12%	25%	60%			
NC(=O)CC[C@H]1C(=O)N(CCc2ccc3ccccc3c2)CCN1C(=O)[C@H](N)Cc1ccc(Cl)cc1Cl [Example 50]	0%	0%	0%	0%			
NCC[C@H]1C(=O)N(CCc2ccc3ccccc3c2)CCN1C(=O)[C@H](N)Cc1ccc(Cl)cc1Cl [Example 54]	28%	11%	23%	55%			
N[C@H](Cc1ccc(Cl)cc1Cl)C(=O)N1CCN(CCc2ccc3ccccc3c2)C(=O)[C@@H]1CCCCNC(=O)CC1CCCCC1 [Example 62]	0%	4%	2%	6%			
N[C@H](Cc1ccc(Cl)cc1Cl)C(=O)N1CCN(CCc2ccc3ccccc3c2)C(=O)[C@@H]1CCCCNC=O [Example 64]	8%	0%	6%	30%			
CC(=O)NCCCC[C@H]1C(=O)N(CCc2ccc3ccccc3c2)CCN1C(=O)[C@H](N)Cc1ccc(Cl)cc1Cl [Example 65]	17%	3%	0%	26%			
